Values joined by “and” are separate entries in the source; they are usually repeats but may differ in a detail not shown here. Identical values can stand only once.
Assay: not told

SMILES | log partition 1-octanol / water
COC(=O)C1CC2(CC2)CN1C(C)=O (centres unmarked) | 0.19 log10
COC(=O)C1CC2(CN1C(C)=O)CC2(F)F (centres unmarked) | 0.18 log10 and 0.03 log10
